Laboratory results reported in patent US5141962A, “Amine compounds” (Roussel Uclaf, priority 1989, dated 1992).

Experiments:
[1] = biological target: T1, kappa opiate receptor (Cavia porcellus, UniProt P41144); assay: Test for distinction between agonist and antagonist on the kappa opiate receptor (3H diprenorphine, with or without NaCl and GTP); assay type: binding, guinea pig; conditions: for IC50: guinea pig cerebellum membranes, 0.3 nM 3H diprenorphine
T1 construct: Membrane samples prepared from the cerebellum of guinea pigs; from tissue; host or cells: guinea pig cerebellum membranes

[2] = tested on: female mice; assay: Antagonist effect vis-a-vis the analgesic activity of U-50488, hot plate test with mice; assay type: in vivo, mouse; conditions: hot plate 56° C., product of Example 1 20 mg/kg SC, U-50488 5 mg/kg SC, combination 5 + 20
[3] = biological target: T2, dopamine receptor (Rattus norvegicus, UniProt P61169); assay: Test of bonding to the dopamine receptor in vitro (3H spiroperidol); assay type: binding; conditions: rat striated bodies membranes, 0.15 nM 3H spiroperidol, pH 7.25 Krebs Tris buffer; read-out: IC50, displacement of 3H spiroperidol from dopamine receptor
T2 construct: prepared from the striated bodies of rats were used; from tissue; host or cells: rat striatum membranes
Procedure: (optionally for about 30 days) and prepared from the striated bodies of rats were used. The samples were suspended in pH 7.25 Krebs Tris buffer. […] The product was first tested at 5×10^-6 M, in triplicate. […] Incubation took place at 27° C. for 20 minutes, followed by returning to the water bath at 0° C. for 5 minutes, then vacuum filtering, rinsing with pH 7.7 Tris buffer, and the radioactivity was counted in the presence of a Triton scintillator.

[4] = biological target: T1, kappa opiate receptor; assay: Test of the bonding to the kappa opiate receptor in vitro (3H ethylketocyclazocine); assay type: binding, guinea pig
Procedure: a) Test of the bonding to the kappa opiate receptor in vitro
Membrane samples prepared from the cerebellum of guinea pigs preserved at -30° C. (optionally for about 30 days) were used.
These samples were suspended in pH 7.7 Tris buffer. Fractions of 2 ml were allocated into hemolysis tubes and 1 nM of 3H ethylketocyclazocine and the product to be studied were added. The product was first tested in triplicate at 5×10^-6 M. When the tested product displaced more than 50% of the radioactivity bonded specifically to the receptor, it was tested again according to a range of 7 doses to determine the dose which inhibited 50% of the radioactivity bonded specifically to the receptor. Thus, the 50% inhibiting concentration was determined.
The non-specific bonding was determined by the addition of product known under the name U-50 488 H (Lahti et al. 1982, Life Sci. Vol. 31, p. 2257) at 10^-5 M in triplicate. Incubation took place at 25° C. for 40 minutes, followed by returning to the water bath at 0° C. for 5 minutes, then vacuum filtering, rinsing with pH 7.7 Tris buffer, and the radioactivity was counted in the presence of a Triton scintillator. The result was expressed directly as the 50% inhibiting concentration (IC50), that is to say as the concentration of studied product, expressed in nM, necessary to displace 50% of the radioactivity specifically bonded to the studied receptor.

[5] = biological target: T3, mu opiate receptor (Rattus norvegicus, UniProt P33535); assay: Test of bonding to the mu opiate receptor in vitro (3H DAGO); assay type: binding; conditions: rat brain membranes, 1 nM 3H DAGO, 25° C. 40 minutes, pH 7.7 Tris buffer; read-out: IC50, displacement of 3H DAGO from mu opiate receptor
T3 construct: from the brains of rats were used; from tissue; host or cells: rat brain membranes

[6] = tested on: male rats; assay: Antagonist effect vis-a-vis the diuretic activity of U-50488, action on diuresis; assay type: in vivo, rat; conditions: male rats fasted 16 h; product of Example 1 20 mg/kg SC, U-50488 5 mg/kg, combination 5 + 20 mg/kg; urine collected for one hour

T1 sequence (P41144 whole entry): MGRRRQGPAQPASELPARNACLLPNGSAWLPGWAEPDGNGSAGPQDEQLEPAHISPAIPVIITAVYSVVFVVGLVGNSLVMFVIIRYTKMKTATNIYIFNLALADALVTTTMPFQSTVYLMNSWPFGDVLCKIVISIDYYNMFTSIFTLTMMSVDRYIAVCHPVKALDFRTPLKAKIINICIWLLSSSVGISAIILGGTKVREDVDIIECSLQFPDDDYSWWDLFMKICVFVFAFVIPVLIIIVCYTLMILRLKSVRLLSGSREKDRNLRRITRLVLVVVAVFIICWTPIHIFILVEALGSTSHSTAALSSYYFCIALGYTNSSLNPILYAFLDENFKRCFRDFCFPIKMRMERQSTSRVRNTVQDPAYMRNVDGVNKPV
T2 sequence (P61169 whole entry): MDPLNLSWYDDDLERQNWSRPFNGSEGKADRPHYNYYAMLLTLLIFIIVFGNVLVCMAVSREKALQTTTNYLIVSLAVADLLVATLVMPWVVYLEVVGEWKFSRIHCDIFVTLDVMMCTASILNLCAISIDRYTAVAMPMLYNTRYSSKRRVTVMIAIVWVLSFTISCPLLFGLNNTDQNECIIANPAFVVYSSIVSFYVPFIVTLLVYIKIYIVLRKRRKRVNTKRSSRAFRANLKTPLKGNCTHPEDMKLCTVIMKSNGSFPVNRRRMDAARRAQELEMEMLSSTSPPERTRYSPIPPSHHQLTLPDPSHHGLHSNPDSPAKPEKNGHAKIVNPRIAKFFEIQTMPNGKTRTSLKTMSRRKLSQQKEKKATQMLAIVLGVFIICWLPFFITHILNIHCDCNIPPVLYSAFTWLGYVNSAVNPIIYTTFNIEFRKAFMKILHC
T3 sequence (P33535 whole entry): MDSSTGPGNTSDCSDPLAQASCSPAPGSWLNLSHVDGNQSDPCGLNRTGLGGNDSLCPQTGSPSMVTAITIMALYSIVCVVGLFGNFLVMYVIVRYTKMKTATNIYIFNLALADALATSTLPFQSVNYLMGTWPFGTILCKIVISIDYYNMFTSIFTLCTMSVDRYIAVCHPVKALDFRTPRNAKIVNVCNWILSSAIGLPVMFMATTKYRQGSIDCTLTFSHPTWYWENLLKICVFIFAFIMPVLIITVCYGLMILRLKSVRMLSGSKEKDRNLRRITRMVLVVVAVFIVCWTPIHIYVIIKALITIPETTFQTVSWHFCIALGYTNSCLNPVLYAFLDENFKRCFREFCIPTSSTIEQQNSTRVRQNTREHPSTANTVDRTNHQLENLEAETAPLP

CCCCCN(CCc1ccccc1)CCc1cccc(O)c1 [Product of example 1, N-pentyl-N-phenethyl-3-hydroxyphenethylamine]
Agonist or antagonist character on the kappa receptor ([1]; conclusion from IC50 with and without NaCl/GTP): antagonist product of the kappa receptor | IC50 ([1]; NaCl 100 mM, GTP 50 uM, read-out: IC50 in the presence of GTP and NaCl): 135 nM | IC50 ([1]; without NaCl and GTP, read-out: IC50 in the absence of GTP and NaCl): 43 nM | Reaction time, m ± esm, 30 mn ([2]; 30 minutes after injection): 4.7 ± 0.6 s | Reaction time, m ± esm, 0 mn ([2]; initial time (0 mn)): 5.1 ± 0.1 s | IC50 [3]: 10600 nM | Affinity for kappa, mu and dopamine receptors (conclusion) ([4]; conclusion from the kappa, mu and dopamine bonding tests): only has an affinity for the kappa opiate receptor | IC50 ([4]; guinea pig cerebellum membranes, 1 nM 3H ethylketocyclazocine, 25° C. 40 minutes, pH 7.7 Tris buffer, read-out: IC50, displacement of 3H ethylketocyclazocine from kappa opiate receptor): 57 nM | IC50 [5]: 840 nM | Volume of urine excreted in 1 hour, m ± esm [6]: 0.0067 ± 0.0002 L/kg
